# Results reported in patent US20260015354A1, “Solid State Forms of Ensifentrine” (Cipla Limited, priority 2022, published 2026).
# Assay: Comparative solubility of crystalline forms of Ensifentrine at pH 3
# Type: physicochemical
# Details: for solubility compared to Form I: comparison in words
# From the text: The solubility of Form C1 and Form I disclosed in U.S. Pat. No. 9,062,047 at pH 3 were compared.
# The solubility of Form C3 and Form I disclosed in U.S. Pat. No. 9,062,047 at pH 3 was compared.
solubility compared to Form I,solubility (time 15 min) [µg/mL],solubility (time 30 min) [µg/mL],solubility (time 60 min) [µg/mL],solubility (time 120 min) [µg/mL],solubility (time 240 min) [µg/mL],SMILES
better solubility compared to Form I,,,,,,COc1cc2c(cc1OC)-c1c/c(=N\c3c(C)cc(C)cc3C)n(CCNC(N)=O)c(=O)n1CC2 [Form C1]
better solubility compared to Form I,2110,1960,2000,2050,2130,COc1cc2c(cc1OC)-c1c/c(=N\c3c(C)cc(C)cc3C)n(CCNC(N)=O)c(=O)n1CC2 [Form C3]
,1380,1390,1310,1350,1390,"COc1cc2c(cc1OC)-c1c/c(=N\c3c(C)cc(C)cc3C)n(CCNC(N)=O)c(=O)n1CC2 [Form I, reference compound]"
